Values joined by “and” are separate entries in the source; they are usually repeats but may differ in a detail not shown here. Equal values may be shown once. Read-outs that look alike come from different tables or passages of the source.
Assays:
[1] = tested on: ovulation; conditions: 21-day use; cited from earlier work
[2] = tested on: serum progesterone concentration; test: Serum progesterone concentration in proestrus at 19.00 h (Example 2); assay type: in vivo, rat
Method: This can be seen as an indicator of the efficiency of the LH peak in changing from a predominantly estrogen-producing ovary (before the LH peak) to a predominantly progesterone-producing ovary (caused by the LH peak). […] By contrast, the literature describes that other COX inhibitors have no effect on the hormonal levels [Pall et al.; Human Reproduction vol. 16, no. 7, pp 1323-1328 (2001); Bata et al., J Clin Pharmacol (2006) 46:925-932]. […] The ovulation rates in the combination with 0.01 mg of levonorgestrel and 0.5 mg of piroxicam (31 oocytes), with 1 mg of piroxicam (19 oocytes) and with 2 mg of piroxicam (0 oocytes) were much lower here and, in the highest dose, even led to complete anovulation (10 animals per group).
(§1) Two cycles were monitored using vaginal smears before the start of the test. Only animals with a regular 4-day cycle were entered in the test. The allocation to the treatment groups was randomized. Starting in the metestrus, the test substance was administered for 4 days (days 1-4) and the cycle continued to be monitored. On day 3 of treatment (proestrus), a retrobulbar blood sample was taken at 9.00 h and from 18.30 h in order to determine the luteinizing hormone (LH). On day 4 (after administration), the animals with vaginal smears showing them in estrus or metestrus underwent unilateral ovariectomy under anaesthetic. Crush preparations were made from the tubes and were examined under a microscope for the presence of oocytes. On day 5, all the animals (the intact animals and those having undergone unilateral ovariectomy) were sacrificed, and the tubes of the animals in estrus and metestrus were prepared and examined in the same way. […] By contrast, the COX inhibitors on their own provide only partial suppression of ovulation.
(§2) The test set-up corresponds to the one described in Example 1.

[3] = tested on: ovulated cumulus-oocyte complexes; test: In vitro fertilization rate of ovulated cumulus-oocyte complexes after in vivo treatment (Example 3); parameters: species or system mice; conditions: n=5 animals
Text: Substances can influence fertility by reducing the fertilizability of oocytes or cumulus-oocyte complexes. In order to investigate such effects, substances can be administered in vivo and, after ovulation from cumulus/oocyte complexes, can be subjected to in vitro fertilization. The in vitro fertilization rate, with no further test substance being added, allows conclusions to be drawn regarding the in vivo effects of the test substances.
Immature female mice (strain: B6D2F1, Charles River, Suelzfeld, age: 19-25 days) were housed in macrolon cages in rooms under controlled lighting conditions (12 hours of darkness, 12 hours of light), were fed a standard diet and had access to water ad libitum. The mice were primed with PMSG (Pregnant Mare Serum Gonadotropin) (10 IU/animal i.p.). After 48 hours, an ovulation-triggering stimulus was induced in the animals by administration of 10 IU/animal i.p. The COX inhibitors were suspended in a carrier liquid (85 mg MyrjR53 (2-hydroxyethyl octadecanoate; CAS no. 9004-99-3) in 100 ml of 0.9% w/v NaCl solution), and the daily dose corresponding to the treatment group (n=5 animals per group) was administered in a volume of 0.2 ml p.o. 8 hours before and together with hCG. Fourteen hours after hCG administration, the animals were sacrificed. Ovulated oocytes and cumulus-oocyte complexes were recovered from the ovarian bursa and/or oviduct and subjected to in vitro fertilization, with a sperm count of 40,000 sperm/0.5 ml for 1 hour being used for the fertilization. Twenty-four hours after incubation with the sperm, the number of fertilized oocytes was established and the percentage fertilization rate determined.

[4] = tested on: adult female rats with normal cycles; test: Ovulation inhibition test on rats; assay type: in vivo, rat; conditions: 5 animals; for Ovulation count, absolute / Ovulation count, mean: 4 days
Method: The efficacy of the composition according to the invention was ascertained by ovulation-inhibiting studies carried out on adult female rats with normal cycles. First, using 5 dose groups plus placebo (0.003 mg, 0.01 mg, 0.03 mg, 0.1 mg and 0.3 mg), the limit dose of levonorgestrel (LNG) was determined at which there is still no ovulation-inhibiting effect.
With the dose of LNG thus determined (0.01 mg), a comparison test was then carried out in which the ovulation-inhibiting effect of LNG, placebo, meloxicam, piroxicam, and the combination of LNG and meloxicam, was compared against the composition, according to the invention, of LNG plus piroxicam.
With the onset of the metestrus, 5 animals in each case were treated on four successive days with (a) placebo, (b) 0.01 mg of LNG, (c) 2 mg of piroxicam, (d) 0.01 mg of LNG and 2 mg of piroxicam, (e) 2 mg of meloxicam, and (f) […] of LNG and 3 mg of meloxicam. LNG was given by s.c. administration, and the COX inhibitor was given orally (p.o.).
In the following test, female rats weighing between 200 and 220 g were used. The animals were housed in macrolon cages in rooms under controlled lighting conditions (12 hours of darkness, 12 hours of light), were fed a standard diet and had access to water ad libitum.
Levonorgestrel was dissolved in benzyl benzoate/castor oil (1+4 v/v), and the daily dose was given by s.c. administration in a volume of 1 ml/kg body weight.
The COX inhibitors were suspended in a carrier liquid (85 mg of MyrjR53 (2-hydroxyethyl octadecanoate; CAS no. 9004-99-3) in 100 ml of 0.9% w/v NaCl solution), and the daily dose corresponding to the treatment group was administered orally in a volume of 2 ml/kg body weight.
as §1, §2

[5] = tested on: adult female rats with normal cycles; test: Ovulation inhibition test on rats; assay type: in vivo, rat
[6] = tested on: ovulation; conditions: cited from earlier work
[7] = 25 mg on 9 successive days (Pall et al.)

C#C[C@]1(OC(C)=O)CC[C@H]2[C@@H]3CCC4=CC(=O)CC[C@@H]4[C@H]3CC[C@@]21C [Norethisterone acetate (NETA), Norethisterone acetate]
minimal dose for inhibition of ovulation, p.o. dose/day [1]: 0.5 mg^33

C#C[C@]1(O)C=C[C@H]2[C@@H]3CCC4=CC(=O)CC[C@@H]4[C@H]3CC[C@@]21CC [Gestodene (GSD), Gestodene]
minimal dose for inhibition of ovulation, p.o. dose/day [1]: 30 µg and 40 to 50 µg

C#C[C@]1(O)CC[C@H]2[C@@H]3CCC4=CC(=O)CC[C@@H]4[C@H]3CC[C@@]21C [Norethisterone]
minimal dose for inhibition of ovulation, p.o. dose/day [1]: 0.5 mg^33

C#C[C@]1(O)CC[C@H]2[C@@H]3CCC4=CCCC[C@@H]4[C@H]3C(=C)C[C@@]21CC [Desogestrel (DSG), Desogestrel]
minimal dose for inhibition of ovulation, p.o. dose/day [1]: 60 μg^28

CC(=O)[C@@]1(C)CC[C@H]2[C@@H]3C=C(C)C4=CC(=O)CC[C@]4(C)[C@H]3CC[C@@]21C [Medrogestone]
minimal dose for inhibition of ovulation, p.o. dose/day [1]: 10 mg^33

C#C[C@]1(O)CC[C@H]2[C@@H]3CCC4=CCCC[C@@H]4[C@H]3CC[C@@]21C [Lynestrenol]
minimal dose for inhibition of ovulation, p.o. dose/day [1]: 2 mg^33

CN1C(C(=O)Nc2ccccn2)=C(O)c2ccccc2S1(=O)=O [Piroxicam, piroxicam]
Progesterone in proestrus at 19.00 h—mean ± SD (n = 10) ([2]; 0.5 mg p.o.): 237 ± 49 | Progesterone in proestrus at 19.00 h—mean ± SD (n = 10) ([2]; 1 mg p.o.): 183 ± 67 | Progesterone in proestrus at 19.00 h—mean ± SD (n = 10) ([2]; 2 mg p.o.): 122 ± 94 | Fertilization rate (% ± SD) ([3]; 2 × 0.15 mg/animal p.o.): 19 ± 8% | Fertilization rate (% ± SD) ([3]; 2 × 0.3 mg/animal p.o.): 14 ± 18% | Fertilization rate (% ± SD) ([3]; 2 × 0.5 mg/animal p.o.): 12 ± 7% | Ovulation count, absolute ([4]; COX inhibitor 2 mg p.o.): 9 | Ovulation count, mean ([4]; COX inhibitor 2 mg p.o.): 1.8 ± 0.4 | oocytes ovulated ([4]; treatment group (c), 2 mg piroxicam on its own): 9 oocytes | oocytes ovulated ([5]; 1 mg piroxicam alone): 28 oocytes | oocytes ovulated ([5]; Example 2, 0.5 mg piroxicam p.o., 10 animals per group): 85 oocytes | oocytes ovulated ([5]; Example 2, 1 mg piroxicam p.o., 10 animals per group): 56 oocytes | oocytes ovulated ([5]; Example 2, 2 mg piroxicam p.o., 10 animals per group): 30 oocytes

Cc1cnc(NC(=O)C2=C(O)c3ccccc3S(=O)(=O)N2C)s1 [Meloxicam, meloxicam]
delay in ovulation ([6]; 30 mg per patient and day on 5 successive days (Bata et al.)): 5 days | Ovulation count, absolute ([4]; COX inhibitor 2 mg p.o.): 28 | Ovulation count, mean ([4]; COX inhibitor 2 mg p.o.): 5.6 ± 2.5

CCC(=O)[C@@]1(C)CC[C@H]2[C@@H]3CCC4=CC(=O)CCC4=C3CC[C@@]21C [Promegestone]
minimal dose for inhibition of ovulation, p.o. dose/day [1]: 0.5 mg^33

CC(=O)[C@H]1CC[C@H]2[C@@H]3C=CC4=CC(=O)CC[C@@]4(C)[C@@H]3CC[C@]12C [Dydrogesterone]
minimal dose for inhibition of ovulation, p.o. dose/day [1]: >30 mg^33

C#C[C@]1(O)CC[C@H]2[C@@H]3CCC4=C[C@@H](O)CC[C@@H]4[C@H]3CC[C@@]21C [Ethynodiol]
minimal dose for inhibition of ovulation, p.o. dose/day [1]: 2 mg33

C#C[C@]1(O)CC[C@H]2[C@@H]3CCC4=CC(=O)CC[C@@H]4[C@H]3CC[C@@]21CC [LNG, levonorgestrel]
Ovulation count, absolute ([4]; LNG 0.01 mg s.c.): 35 | Ovulation count, mean ([4]; LNG 0.01 mg s.c.): 7.0 ± 2.0 | oocytes ovulated ([5]; Example 2, LNG on its own (0.01 mg s.c.), 10 animals per group): 68 oocytes | oocytes ovulated ([5]; treatment group (b), 0.1 mg of levonorgestrel, 5 animals): 35 oocytes

CS(=O)(=O)c1ccc(C2=C(c3ccccc3)C(=O)OC2)cc1 [rofecoxib]
delay in ovulation [6, 7]: over 48 hours | patients with delay in ovulation of over 48 hours [6, 7]: 4 of 6

C[C@]12CCC(=O)C=C1[C@@H]1C[C@@H]1[C@H]1[C@@H]3[C@@H]4C[C@@H]4[C@@]4(CCC(=O)O4)[C@@]3(C)CC[C@@H]12 [Drospirenone (DRSP), Drospirenone]
minimal dose for inhibition of ovulation, p.o. dose/day [1]: 2 mg^33

C[C@]12CCC3=C4CCC(=O)C=C4CC[C@H]3[C@@H]1CC[C@@]2(O)CC#N [Dienogest (DNG), Dienogest]
minimal dose for inhibition of ovulation, p.o. dose/day [1]: 1-2 mg^29

CC(=O)O[C@]1(C(C)=O)CC[C@H]2[C@@H]3C=C(Cl)C4=CC(=O)[C@@H]5C[C@@H]5[C@]4(C)[C@H]3CC[C@@]21C [Cyproterone acetate (CPA), Cyproterone acetate]
minimal dose for inhibition of ovulation, p.o. dose/day [1]: 1 mg^33

C#C[C@]1(OC(C)=O)CC[C@H]2[C@@H]3CCC4=CC(=NO)CC[C@@H]4[C@H]3CC[C@@]21CC (mixture of isomers) [Norgestimate (NGM), Norgestimate]
minimal dose for inhibition of ovulation, p.o. dose/day [1]: 180-250 μg^31

CC(=O)[C@H]1CC[C@H]2[C@@H]3CCC4=CC(=O)CC[C@]4(C)[C@H]3CC[C@]12C [Progesterone]
minimal dose for inhibition of ovulation, p.o. dose/day [1]: 300 mg^33

C[C@H](O)C(=O)[C@@]1(C)CC[C@H]2[C@@H]3CCC4=CC(=O)CCC4=C3CC[C@@]21C [Trimegestone]
minimal dose for inhibition of ovulation, p.o. dose/day [1]: 0.5 mg^33

CC(=O)O[C@]1(C(C)=O)CC[C@H]2[C@@H]3C=C(C)C4=CC(=O)CC[C@@H]4[C@H]3CC[C@@]21C [Nomegestrol acetate (NOMAc), Nomegestrol acetate]
minimal dose for inhibition of ovulation, p.o. dose/day [1]: 2.5 mg^32

CC(=O)O[C@]1(C(C)=O)CC[C@H]2[C@@H]3C[C@H](C)C4=CC(=O)CC[C@]4(C)[C@H]3CC[C@@]21C [Medroxyprogesterone acetate (MPA), Medroxyprogesterone acetate]
minimal dose for inhibition of ovulation, p.o. dose/day [1]: 10 mg^33

Source: patent publication US9907806B2, “Pharmaceutical composition for emergency contraception” (Bayer Intellectual Property GmbH, priority 2009, dated 2018)
